Article PMC8249445, “Complex effects of macrolide venturicidins on bacterial F-ATPases likely contribute to their action as antibiotic adjuvants” (Scientific Reports, 2021)
Read-outs that look alike come from different tables or passages of the source.

Experiments:
S. aureus (MRSA) strains = conditions: cited from earlier work
[1] = molecular target: T1, E. coli membranes with FOF1 lacking the ε subunit's CTD (ε88-stop) (Escherichia coli, UniProt P68699); assay: ATP hydrolysis by ε88-stop E. coli membranes, enzyme-coupled spectrophotometric assay; format: biochemical; conditions: for Ki: VentA at half-max. inhibition (Ki), early inhibition; for ATPase at saturating ventA (y0) / VentA-sensitive ATPase (y1): best fit of early rates
T1 construct: To express haploid levels of EcFOF1 containing WT-ε or ε88-stop; expressed in transfected cells; host or cells: E. coli strain XH1 (chromosomal atpC deletion) carrying the ε88-stop version of pMBε1; inverted membrane vesicles
Source text: We next investigated whether the ε-inhibited state of EcFOF1 also impacts interactions of ventA with the enzyme. The N-terminal domain (NTD) of ε is required for FOF1 assembly and functional coupling of F1 to FO in eukaryotic and bacterial species; the C-terminal domain (CTD) of ε can auto-inhibit FOF1 and isolated F1 from some bacteria and from chloroplasts, but the mitochondrial homolog (δ) is not inhibitory[39],[40]. Thus we measured the effects of ventA on ATPase activity of E. coli membranes expressing ε88-stop, which lacks the autoinhibitory εCTD (Fig. 3). From Table 1 (100% ATPase values), it is clear that selenite activates membrane ATPase more (fourfold) for ε88-stop than for WT (2.8-fold). This is because, without the inhibitory εCTD, more enzyme complexes shift to the MgADP-inhibited state, which can be activated by selenite. […] In contrast, early inhibition of ATPase by ventA has similar Ki values for WT and ε88-stop membranes in the absence (0.7 vs 0.5 μM) or in the presence of selenite (0.23 vs 0.09 μM).
Plasmid pXH302S, which encodes the WT atpC gene and expresses near haploid levels of the ε subunit, was subjected to fusion PCR mutagenesis to construct plasmid pMBε1, with an N-terminal affinity tag ([…]) added prior to the initial Met residue. To express the ε88-stop subunit, an AfeI-ScaI restriction fragment of WT pMBε1 was replaced by the analogous fragment from pH6ε88-stop[46]. To express haploid levels of EcFOF1 containing WT-ε or ε88-stop, the appropriate version of pMBε1 was transformed into E. coli strain XH1, which has a chromosomal deletion of the atpC gene for ε[54]. For these transformed strains, cultures were grown and inverted membrane vesicles (IMV) were prepared according to [55]. WT ε, with the same N-terminal His6-tag, was over-expressed from pH6ε and purified as described.
(§1) ATP hydrolysis by membrane vesicles was assayed spectrophotometrically[57] at 30 °C using an open-chamber, diode array spectrophotometer (Hewlett Packard 8453 UV–Vis) as described in[29]. The assay medium (1 ml per assay) contained 20 mM Mops/Tris, pH 8.0, 0.2 mM EDTA, 10 mM CH3COOK, 1 mM ATP, 3.2 mM Mg(CH3COO)2, 1 mM phosphoenolpyruvate, at least 0.3 mM NADH, 0.1 mg/ml pyruvate kinase, 0.1 mg/ml lactate dehydrogenase, 5 mM KCN, and 5 μM carbonyl cyanide 4-(trifluoromethoxy)-phenylhydrazone. As noted before, the rate of ATP hydrolysis by membranes increases to a small degree during assays. This is due, at least in part, to dissociation of a small fraction of EcF1 and/or ε from the membranes, since the increase is inhibited by added ε (e.g., Fig. 5). To avoid interference of this increase with the changes of ATPase activity induced by venturicidins, unless indicated otherwise, measurement of ATPase activities were started 60 min after addition of membranes to the complete assay medium. This minimizes further increases in ATPase rate during control assays to < 15%. To keep absorbance between 1.5 and 2 units after the 60-min preincubation, up to 0.2 mM additional NADH was added to the assay medium. In figures displaying activity traces, some traces are shifted vertically for visual clarity.

[2] = system: FOF1 in membranes from P. denitrificans; parameters: method as in PMID 10672007; conditions: cited from earlier work
[3] = molecular target: T2, PaFOF1 in membranes from P. aeruginosa strain PAO1 (Pseudomonas aeruginosa, UniProt Q9HT15); assay: ATP hydrolysis by P. aeruginosa PAO1 membranes, enzyme-coupled spectrophotometric assay; format: biochemical; conditions: 38.5 mM selenite
T2 construct: endogenous in cells; host or cells: P. aeruginosa strain PAO1, inverted membrane vesicles
Experimental: P. aeruginosa strain PAO1 was grown in LB medium at 37 °C as described. For preparation of IMV, final cultures used 1 L of LB per 2L baffled flask and were inoculated from an overnight culture at an initial OD600 ~ 0.025. Cultures were shaken at 250 rpm and monitored until they reached mid- to late-logarithmic growth phase (OD600, 1–1.4). Cultures were chilled and subsequent steps for cell lysis and isolation of IMV were done at 4 °C. Cells were sedimented by centrifugation (3,700 × g, 30 min). Cells from 1 to 2 L of culture (~ 2–3 g wet cells/L) were resuspended in 25–40 ml of STEM buffer (TEM buffer plus sucrose[55]), transferred to a 50 ml Oak Ridge tube, sedimented again (11,617 × g, 10 min), resuspended in 20–40 ml of STEM and frozen at -80 °C. Thawed cells were lysed by two sequential passages through an SLM-Aminco French pressure cell at ~ 16,000 psi, essentially as described for E. coli[55]; the pressure cell was enclosed in a clear biohazard bag (MiniGrip, IP2024B3T) during use to contain any aerosols formed. Unlysed cells and cell wall debris were removed by centrifugation (50 ml Oak Ridge tubes, 16,743 × g, 25 min): the supernate was diluted with MTGM7.5 buffer (50 mM MOPS-TRIS, 10%(v/v) glycerol, 5 mM Mg(CH3COO)2, pH 7.5) and centrifugation was repeated at least twice, recovering the supernate each time. The final supernatant lysate was stored at -80 °C. To isolate IMV, the cleared lysate was thawed quickly and diluted with MTGM7.5 as needed to fill 1 or 2 polycarbonate tubes for use in a Beckman Ti70 rotor. The IMV (membranes) were sedimented by ultracentrifugation (250,000 × g max) for 1 h, the membranes were resuspended in MTGM7.5 buffer to fill one Ti70 tube and ultracentrifugation was repeated for 45 min. The membranes were resuspended in a small volume of MTGM7.5 buffer (typically ≥ 10 mg membrane protein/ml) and homogenized manually (Potter–Elvehjem type). Small aliquots of the final membrane sample were quick-frozen in liquid nitrogen and stored at − 80 °C.
as §1

[4] = ε88stop + 38.5 mM selenite (Fig. 3B)

CCC(=O)C(C)C(O)C(C)CC(C)C1OC(=O)CC2(O)CC=C(C)C(O2)C(C)=CCCCC(OC2CC(OC(N)=O)C(O)C(C)O2)C=CC(C)CC1C (stereo not shown) [ventA, venturicidin A]
Reduction of cellular ATP (S. aureus (MRSA) strains; 16 μg ventA/ml): ~ 40% | Concentration at which maximal effect on Δψ was achieved (S. aureus (MRSA) strains; MRSA strain tested further): 16 μg ventA/ml | Reduction of cellular ATP (S. aureus (MRSA) strains; fourfold greater ventA than 16 μg/ml): ~ 90% | Ki ([1]; ε88stop (Fig. 3A)): 500 nM | Ki [1, 4]: 90 nM | Ki for early inhibition lower in presence of selenite than in its absence ([1]; ε88-stop membranes): fivefold | ATPase at saturating ventA (y0) ([1]; ε88stop (Fig. 3A)): 37% (± 3) | VentA-sensitive ATPase (y1) ([1]; ε88stop (Fig. 3A)): 67% (± 4) | ATPase at saturating ventA (y0) [1, 4]: 37% (± 2) | VentA-sensitive ATPase (y1) [1, 4]: 66% (± 4) | Sensitivity of ATPase to ventA inhibition, sulfite-activated vs PMF-activated FOF1 [2]: ~ threefold | Inhibition of early ATPase rate [3]: up to 42% | ATPase remaining at saturating ventA ([3]; best fit of early rates): 62% (± 2) | ventA-sensitive ATPase ([3]; best fit of early rates): 42% (± 3) | Late rate, recovery of activity as % of uninhibited rate ([3]; concentration-dependent): up to 140% | Ki ([3]; read-out: Ki (inhibition of early rate)): 1200 nM
